Experimental data published in CN110698367A, “一种n-(1-取代萘基)-4-甲氧基苯磺酰胺类化合物及其制备和应用” (Wenzhou Medical University, priority 2019, dated 2020).

Key:
[1] = test system: colon cancer cells HCT-116 [结肠癌细胞HCT-116]; assay: MTT antiproliferation assay, HCT-116; format: cell-based; conditions: Homo sapiens, 48 h
[2] = test system: non-small cell lung cancer cells A549 [非小细胞肺癌细胞A549]; assay: MTT antiproliferation assay, A549; format: cell-based; conditions: Homo sapiens, 48 h
[3] = test system: breast cancer cells MDA-MB-231 [乳腺癌细胞MDA-MB-231]; assay: MTT antiproliferation assay, MDA-MB-231; format: cell-based; conditions: Homo sapiens, 48 h
[4] = test system: upstream kinase JAK [上游激酶JAK]; conditions: background statement; in words; cited from earlier work
[5] = test system: STAT3 phosphorylation [STAT3的磷酸化]; conditions: background statement; in words; cited from earlier work
[6] = test system: STAT1 phosphorylation [STAT1的磷酸化]; conditions: background statement; in words; cited from earlier work
[7] = target: upstream kinase Src [上游激酶JAK或Src] (Homo sapiens, UniProt P12931); conditions: background statement; in words; cited from earlier work
[8] = test system: tumour cells [肿瘤细胞]; conditions: background statement, in words; cited from earlier work

Chain of upstream kinase Src [上游激酶JAK或Src] (P12931 whole entry): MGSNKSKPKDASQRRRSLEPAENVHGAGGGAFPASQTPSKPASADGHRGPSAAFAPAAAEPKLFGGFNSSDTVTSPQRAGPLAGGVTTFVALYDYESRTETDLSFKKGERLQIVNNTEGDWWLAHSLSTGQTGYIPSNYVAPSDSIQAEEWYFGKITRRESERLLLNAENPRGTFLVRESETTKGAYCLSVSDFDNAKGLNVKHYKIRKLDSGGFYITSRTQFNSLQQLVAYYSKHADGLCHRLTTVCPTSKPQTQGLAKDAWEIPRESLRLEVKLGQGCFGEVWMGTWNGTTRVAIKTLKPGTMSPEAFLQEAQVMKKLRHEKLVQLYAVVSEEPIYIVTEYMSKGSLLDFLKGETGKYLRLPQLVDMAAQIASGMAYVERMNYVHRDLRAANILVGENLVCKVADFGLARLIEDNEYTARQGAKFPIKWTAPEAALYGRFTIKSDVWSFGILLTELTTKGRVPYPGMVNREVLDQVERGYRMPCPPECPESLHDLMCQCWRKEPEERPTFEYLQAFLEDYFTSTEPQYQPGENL

SMILES | IC50 [1] [µM] | IC50 [2] [µM] | IC50 [3] [µM] | inhibition of upstream kinase JAK [4] | inhibition of STAT3 phosphorylation [5] | inhibition of STAT1 phosphorylation [6] | inhibition of upstream kinase Src [7] | IC50 [8]
COc1ccc(S(=O)(=O)Nc2ccc(-c3ccc(C#N)c(F)c3)c3ccccc23)cc1 [VI 10] | 4.83 | 4.46 | 5.88 | – | – | – | – | –
COc1ccc(S(=O)(=O)Nc2cc(-c3c(O)ccc4ccccc34)c(O)c3ccccc23)cc1 [C188-9] | – | – | – | 无明显抑制作用 | 能抑制STAT3的磷酸化 | 有一定的抑制作用 | 无明显抑制作用 | 较高
